Assays:
Format in all cases: in vivo
4T1 cells = test: 4T1-BALB/c mouse breast tumor model, immunization and tumor challenge; conditions: for tumor retardation: gene vaccines, three immunizations, subcutaneous 2×10^3 4T1 cells, vs mock
Description: BALB/c and C57BL/6 mice were from Charles River Laboratories or Jackson Laboratories. […] Tumor volumes were measured and calculated by (Length^2×Width/2) daily after the size was larger than 1 mm^3. Breeding pairs of BALB-neuT and FVB-neuN (FVB/N-Tg (MMTVneu) 202Mul) mice were obtained from Joseph Lustgarten, Mayo Clinic Arizona. Mice were monitored weekly for the tumor incidence after tumor size reached 1 mm^3. All experiments were performed in accordance with protocols approved by the Institutional Animal Care and Use Committee of Arizona State University. Statistical significance of differences was analyzed by a Student t-test.
The DNA fragments encoding FS peptides were cloned as a C-terminal fusion into the genetic immunization vectors pCMVi-UB (26) and pCMVi-LSrCOMPTT (27, 28) with the Bgl II and Hind III and mixed with 1:1 ratio as the vaccine antigen. Three adjuvants were encoded by genetic immunization vectors. The pCMVi-mGM-CSF vector expresses the adjuvant mouse granulocyte/macrophage colony-stimulating factor (mGM-CSF) under control of the human cytomegalovirus (CMV) promoter (27). […]. Vectors pCMVi-UB, pCMVi-LSrCOMPTT, pCMVi-LTA (also called pCMVi-LS-LTA-R192G) and pCMVi-LTB are available from the PSI:Biology-Materials Repository DNASU (dnasu.org) at Arizona State University. Additional adjuvants were the class A CpG 2216 single-stranded oligodeoxynucleotide obtained from Sigma and alum from Pierce.
Bullets for biolistic genetic immunization used the gold micronanoplex approach and were prepared as described (30) with the following changes. Two grams of 1-micron gold was used. Prior to addition of N-hydroxysuccinimide and N-(3-dimethylaminopropyl)-N′-ethylcarbodiimide hydrochloride, the gold was resuspended in 20 mL of a 0.1 M solution of 2-(N-morpholino) ethanesulfonic acid (MES), pH 6.0. DNA-gold micronanoplexes were prepared by combining, per bullet, 57 μL of cysteamine-gold solution with precipitated DNA (≤10 μg) that had been resuspended in ≤15 μL of water, and then vortexing for 10 min. To the DNA-cysteamine-gold was added 6 μL/bullet of a freshly made solution of PEI-micron gold (167 mg/mL in 0.1 M MES, pH 6, without NaCl). The pelleted micronanoplexes were washed with ethanol prior to resuspension in n-butanol (55 μL/bullet), followed by bullet formation under nitrogen gas.
For the three MS FS experiments, all mice (n=10 per group) were genetically immunized in the ear by Gene Gun at 8 weeks of age (2 shots/mouse, 60 ng pooled antigens plus 0.25 μg LTAB and 2.5 μg CpG2216 as the adjuvant for each shot) and boosted twice (two days apart) in three weeks with 1 μg pooled antigens plus the same adjuvants dosage. All mice were boosted again in two weeks with 50 μg KLH conjugated MS FS peptides with 50 μg CpG 2216 and 50 ul alum in total 100 ul PBS. […]

[1] = system: BALB-NeuT mouse breast tumor; test: BALB-NeuT transgenic mouse mammary cancer model, tumor free curve; conditions: Mantal-Cox test
Description: BALB/c and C57BL/6 mice were from Charles River Laboratories or Jackson Laboratories. For the tumor challenge, 5×10^3 4T1 cells were injected in the mammary pad at the right flank of the mice, or 1×10^5 B16F10 cells were injected subcutaneously in the right flank of the mice. Tumor volumes were measured and calculated by (Length^2×Width/2) daily after the size was larger than 1 mm^3. Breeding pairs of BALB-neuT and FVB-neuN (FVB/N-Tg (MMTVneu) 202Mul) mice were obtained from Joseph Lustgarten, Mayo Clinic Arizona. Mice were monitored weekly for the tumor incidence after tumor size reached 1 mm^3. All experiments were performed in accordance with protocols approved by the Institutional Animal Care and Use Committee of Arizona State University. Statistical significance of differences was analyzed by a Student t-test.
Mice were genetically immunized by Gene Gun at 4-6 weeks with 100 ng of antigen(s) in pCMVi vectors, boosted twice (3-4 days apart) at 9-10 weeks with 1 μg of the same antigen(s), and boosted once at 13-14 weeks with protein. Genetic immunizations included adjuvants LTAB (0.5 μg) and CpG 2216 (5 μg). Protein boosts were 50 μg of KLH conjugated FS peptides (SMC1A-1^4, n=32; RBM FS, n=22; SLAIN2 FS, n=14 and pool of three FS neoantigens, n=37). The protein boost included 50 μg CpG 2216 and 50 μl alum in 100 μl PBS as the adjuvant. […]

B16-F10 cells = test: B16F10-C57BL6 mouse melanoma tumor model, genetic immunization and tumor challenge; conditions: B16F10 melanoma in C57BL6, gene gun immunization, 1×10^5 cells, vs mock/control antigen CPV 172

Row | Sequence | tumor retardation (4T1 cells) | p, tumor free curve, 3FS pool vs individual FS antigen group [1] | tumor growth (B16-F10 cells) | 4T1 tumor growth (4T1 cells; BALB/c, gene gun plus KLH-peptide boost, 5×10^3 4T1 cells, vs empty vector/KLH) | T-cell dependence of protection (4T1 cells; depletion of CD8 or CD4 T-cells in immunized BALB/c mice, 4T1)
1 | AVLLMCQLYQPWMCKEYYRLL [ZDHHC17 FS] | did not | – | – | – | –
2 | IPRMQPQASANHCQLLKVMVA [SLAIN2 FS] | conferred tumor retardation | 0.43 | – | – | –
3 | TAIIGPNGSGCSGVYCHEEPQGEDSSV [mSMC1A-1^4] | – | – | significant retardation of tumor growth | significantly retarded the 4T1 tumor growth | CD8 T cell dependent

From US11976274B2, “Methods and compositions for identifying neoantigens for use in treating and preventing cancer” (Arizona Board of Regents on Behalf of Arizona State …, priority 2019, dated 2024)
